Results taken from patent US10400008B2, “Modulators of the SRC-kinase activity for preventing or treating metastatic cancer” (Cancer Research Technology Limited, priority 2013, dated 2019).

Experiments:
[1] = Body weight of HT1080 xenograft mice; type: in vivo; details: Casodex-treated vs control mice
Method: (§1) HT1080 cells in 50% (v/v) Matrigel solution in phosphate-buffered saline (PBS; pH 7.4) were subcutaneously injected in the dorsal posterior region at 2.5×10^6 cells/male athymic mice (CD mice, Charles-River Italia) without hormone priming. Animals were randomly selected for the treatment with Casodex dissolved in 0.1% ethanol or vehicle alone for additional 4 weeks. Tumour volumes of HT1080 cell xeno-grafts were measured by a calliper and expressed as tumour mass (mm^3). For the treatment of each animal, 200 μl of 1 μM Casodex in 0.1% ethanol or the same amount of vehicle alone were intra-peritoneally administered at alternate days to the mice. No difference in body weight was detected between control mice or Casodex-treated mice.

MMP-9 = MMP-9 release from HT1080 cells (fluorescent AK411 kit); type: cell-based, human; details: 6 h, Casodex 10 μM
Method: (§2) FIG. 4: The S1 peptide inhibits EGF-stimulated migration and MMP-9 secretion in HT1080 cells. Quiescent HT1080 cells were used. In A, cells were left untreated or treated for 6 h with the indicated compounds. MMP-9 release was assayed as described in Methods. In B, cells were allowed to migrate for 6 h in Trans-well filters in the absence or presence of the indicated compounds. Migrated cells were stained and counted as reported in Methods. In A and B, data were expressed as relative increase. Mean and SEM is shown. n represents the number of experiments. In C, cells were wounded and then left unstimulated or stimulated for 6 h with the indicated compounds. Contrast-phase images are representative of 3 different experiments, each performed in duplicate.
(§3) BrdU incorporation, migration and wound healing analysis were done as described (3, 11). MMP-9 activity was assayed (12, 13), using the fluorescent AK411 kit (BIOMOL Res. Lab.).

HT1080 cell xenografts = experiment: HT1080 xenografts in nude male mice, tumor mass; type: in vivo; details: 200 μl of 1 μM Casodex i.p. at alternate days, 4 weeks, vs vehicle
Method: FIG. 1: Casodex reduces the growth of human fibrosarcoma HT1080 xenografts. HT1080 xenografts were established in nude male mice as described in Methods. Tumors were treated with vehicle alone (ethanol), or the pure androgen antagonist, Casodex (Cx; at 1 μM; Sigma-Aldrich). Tumor mass was measured at the indicated times. Mean and SEM are shown. n represents the number of experiments.
as §1

HT1080 cells [2] = experiment: Migration in Trans-well filters and wound healing of HT1080 cells; type: cell-based, human; details: 6 h, Casodex 10 μM
Method: as §2, §3

HT1080 cells [3] = experiment: BrdU incorporation (DNA synthesis) in HT1080 cells; type: cell-based, human; details: EGF, Casodex 10 μM
Method: Androgen challenging of these cells neither induces AR nuclear translocation, nor enhances DNA synthesis while robustly increases cell motility. In A, quiescent HT1080 cells were transfected with 3416 or 3424 ARE-luc constructs with or without hAR expressing plasmid. Details of these procedures have been described in Methods. Cells were left un-stimulated or stimulated for 18 h with 10 nM R1881. The luciferase activity was assayed, normalized using beta-gal as an internal control, and expressed as fold induction. Means and SEM are shown; n represents the number of experiments. […] In B, quiescent HT1080 cells on coverslips were left untreated or treated for 60 min with 10 nM R1881. Cells were analysed by IF for AR (left images) or Hoechst (right images). Images are representative of three independent experiments. […] In C, BrdU incorporation in cells on coverslips was analysed and expressed as in FIG. 2. In D, the number of migrated cells was evaluated and expressed as relative increase. […]
FIG. 3: Inhibition by S1 peptide of AR/Src complex, Src activation and DNA synthesis triggered by EGF in HT1080 cells. […] Lower section in A, lysates were immune-precipitated with anti EGFR Ab and proteins in immune-complexes were detected using antibodies against the indicated proteins. […] After in vivo pulse with BrdU (100 μM; Sigma), BrdU incorporation was analyzed by IF and expressed as % of total nuclei. […]

Src = molecular target: T1, Src (Homo sapiens, UniProt P12931); experiment: Src kinase assay in immune-complexes with enolase as substrate, EGF-stimulated HT1080 cells; type: cell-based; details: EGF 100 ng/ml, 10 μM Casodex, compared with 1 nM S1 peptide
T1 construct: lysates were immune-precipitated with the anti-Src MAb and Src activity in immune-complexes was assayed using enolase as a substrate; endogenous in cells; host or cells: HT1080 human fibrosarcoma cells
Method: FIG. 3: Inhibition by S1 peptide of AR/Src complex, Src activation and DNA synthesis triggered by EGF in HT1080 cells. Quiescent HT1080 cells were used. The cells were left un-stimulated or stimulated for 10 min with EGF (at 100 ng/ml; Roche) in the absence or presence of S1 or Ss peptide (both at 1 nM). Casodex (at 10 μM) was used for comparison with the S1 peptide. The same concentrations of peptides and Casodex were used throughout the experiments. Upper section in A, the Western blot of HT1080 cell lysates with anti-EGFR antibody is shown. […] Lower section in A, lysates were immune-precipitated with anti EGFR Ab and proteins in immune-complexes were detected using antibodies against the indicated proteins. In B, lysates were immune-precipitated with the anti-Src MAb and Src activity in immune-complexes was assayed using enolase as a substrate. In C, cells on coverslips were left untreated or treated for 18 h with the indicated compounds. After in vivo pulse with BrdU (100 μM; Sigma), BrdU incorporation was analyzed by IF and expressed as % of total nuclei. Mean and SEM are shown. n represents the number of experiments.
Src tyrosine kinase was immune-precipitated, detected and assayed using enolase as a substrate (15). Src, EGF-R and tubulin were detected from cell lysates using appropriate antibodies (7). AR was immune-precipitated and detected as reported (3). […]

[4] = system: non-small cell lung tumor line xenografts; details: mice, reference 20; cited from earlier work
EGF receptor (EGFR) = molecular target: T2, EGF receptor (EGFR) (human, UniProt P00533 25-1210); experiment: immune-precipitation with anti-EGFR antibody from EGF-stimulated HT1080 lysates, immunoblot
T2 construct: Endogenous protein of HT1080 cells
Method: Quiescent HT1080 cells were used. […] The same concentrations of peptides and Casodex were used throughout the experiments. […] In C, cells on coverslips were left untreated or treated for 18 h with the indicated compounds. After in vivo pulse with BrdU (100 μM; Sigma), BrdU incorporation was analyzed by IF and expressed as % of total nuclei. Mean and SEM are shown. n represents the number of experiments.
The ECL system (GE Healthcare) was used to reveal immune-reactive proteins.

T1 sequence (P12931 whole entry): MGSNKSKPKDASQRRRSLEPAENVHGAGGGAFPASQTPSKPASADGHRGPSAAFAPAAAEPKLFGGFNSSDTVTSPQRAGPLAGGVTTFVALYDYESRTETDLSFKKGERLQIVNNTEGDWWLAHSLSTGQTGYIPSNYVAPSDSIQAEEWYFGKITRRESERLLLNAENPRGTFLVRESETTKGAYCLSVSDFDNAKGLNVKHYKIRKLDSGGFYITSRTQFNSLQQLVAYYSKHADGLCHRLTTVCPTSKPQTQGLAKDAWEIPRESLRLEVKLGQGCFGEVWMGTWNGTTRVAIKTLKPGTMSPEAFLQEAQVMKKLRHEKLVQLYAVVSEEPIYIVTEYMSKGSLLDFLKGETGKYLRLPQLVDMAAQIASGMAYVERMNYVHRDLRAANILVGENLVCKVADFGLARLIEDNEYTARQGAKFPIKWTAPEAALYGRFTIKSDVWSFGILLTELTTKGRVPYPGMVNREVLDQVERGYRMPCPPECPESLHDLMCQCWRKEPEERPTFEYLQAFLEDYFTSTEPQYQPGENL

In the case of `CC(O)(CS(=O)(=O)c1ccc(F)cc1)C(=O)Nc1ccc(C#N)c(C(F)(F)F)c1` (centres unmarked) [Casodex, reference compound], the body weight [1] is reported as “No difference”, the “EGF-stimulated MMP-9 secretion” value (MMP-9) is reported as “inhibits” and the “growth (tumor mass) of HT1080 xenografts” value (HT1080 cell xenografts) is reported as “reduced”. For the same molecule, the EGF-increased motility (HT1080 cells [2]) was “inhibited at a similar extent”, the “EGF mitogenic effect (DNA synthesis)” value (HT1080 cells [3]) was “abolishes” and the “EGF stimulation of Src activity” value (Src) was “comparable”.

In the case of `C[C@]12CC[C@@H]3c4ccc(O)cc4C[C@@H](CCCCCCCCC[S+]([O-])CCCC(F)(F)C(F)(F)F)[C@H]3[C@@H]1CC[C@@H]2O` (some centres unmarked) [ICI 182,780], the “estrogen-stimulated growth of non-small cell lung tumor line xenografts” value [4] is listed as “blocks”.

B1: androgen receptor (AR) (receptor, human, UniProt P10275 1-920, looked up)
chain: MEVQLGLGRVYPRPPSKTYRGAFQNLFQSVREVIQNPGPRHPEAASAAPPGASLLLLQQQQQQQQQQQQQQQQQQQQQQQETSPRQQQQQQGEDGSPQAHRRGPTGYLVLDEEQQPSQPQSALECHPERGCVPEPGAAVAASKGLPQQLPAPPDEDDSAAPSTLSLLGPTFPGLSSCSADLKDILSEASTMQLLQQQQQEAVSEGSSSGRAREASGAPTSSKDNYLGGTSTISDNAKELCKAVSVSMGLGVEALEHLSPGEQLRGDCMYAPLLGVPPAVRPTPCAPLAECKGSLLDDSAGKSTEDTAEYSPFKGGYTKGLEGESLGCSGSAAAGSSGTLELPSTLSLYKSGALDEAAAYQSRDYYNFPLALAGPPPPPPPPHPHARIKLENPLDYGSAWAAAAAQCRYGDLASLHGAGAAGPGSGSPSAAASSSWHTLFTAEEGQLYGPCGGGGGGGGGGGGGGGGGGGGGGGEAGAVAPYGYTRPPQGLAGQESDFTAPDVWYPGGMVSRVPYPSPTCVKSEMGPWMDSYSGPYGDMRLETARDHVLPIDYYFPPQKTCLICGDEASGCHYGALTCGSCKVFFKRAAEGKQKYLCASRNDCTIDKFRRKNCPSCRLRKCYEAGMTLGARKLKKLGNLKLQEEGEASSTTSPTEETTQKLTVSHIEGYECQPIFLNVLEAIEPGVVCAGHDNNQPDSFAALLSSLNELGERQLVHVVKWAKALPGFRNLHVDDQMAVIQYSWMGLMVFAMGWRSFTNVNSRMLYFAPDLVFNEYRMHKSRMYSQCVRMRHLSQEFGWLQITPQEFLCMKALLLFSIIPVDGLKNQKFFDELRMNYIKELDRIIACKRKNPTSCSRRFYQLTKLLDSVQPIARELHQFTFDLLIKSHMVSVDFPEMMAEIISVQVPKILSGKVKPIYFHTQ
notes: Endogenous protein of HT1080 cells (co-immunoprecipitation from lysates)
B1: binds (EGF receptor (EGFR)).
